These results are taken from patent publication US5185319A, “Stabilization of organic compounds” (National Research Development Corporation, priority 1989, dated 1993).

Data set [1] concerns the target porcine insulin (Sus scrofa, UniProt P01315). Put plainly: Stability of insulin in solution with chelating agent, reverse phase HPLC. The format is physicochemical. The following applies: pH 7.0 solution; for effect on stability of insulin (amount of insulin present as percentage of the original amount): 100 μM chelating agent, 4, 8 and 12 weeks. How it is done:
A solution was prepared corresponding to that described in Example 1 containing porcine insulin and being pyrogen-free but not sterile. For comparative purposes a further solution was prepared in which the hydroxypyridone was replaced by the alternative chelating agent 3-hydroxy-2-methyl-4-pyrone.
The solutions were incubated at either 4° C. or 37° C. and the stability of the insulin was studied over a period of 12 weeks through use of the reverse phase HPLC method described by Seipke et al, Angew. Chem. Int. Ed. Engl., 1986, 25, 535-552 and by Grau, Diabetologia, 1985, 28, 458-463. The amount of insulin present in the solution at 4, 8 and 12 weeks was then calculated as a percentage of the original amount present.

Data set [2] has as its system insulin. Put plainly: Investigation of chelating agents for stabilization of insulin. It is filed as physicochemical.

Chain of porcine insulin (P01315 25-54 limits assumed): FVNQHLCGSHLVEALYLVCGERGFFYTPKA
Chain of porcine insulin (P01315 88-108 limits assumed): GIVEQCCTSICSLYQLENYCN

For the compound `COCCn1ccc(=O)c(O)c1C` [3-hydroxy-1-(2'-methoxyethyl)-2-methylpyrid-4-one], the “degradation of insulin over the whole period of 12 weeks” value in data set [1] (incubated at 4° C., 100 μM chelating agent) was “no degradation was observed”. Also, the “effect on stability of insulin (amount of insulin present as percentage of the original amount)” value in data set [1] (incubated at 4° C.) is reported as “stabilises insulin”; in data set [1] (incubated at 37° C.), “stabilises insulin, to some extent”.
Regarding `Cc1occc(=O)c1O` [3-hydroxy-2-methyl-4-pyrone], in data set [2], the “stabilizing effect on insulin” value is “no stabilizing effect”. Moreover, the “effect on stability of insulin (amount of insulin present as percentage of the original amount)” value in data set [1] (incubated at 4° C.) and in data set [1] (incubated at 37° C.) was “destabilises insulin” throughout.
Regarding `O=C(O)CN(CCN(CC(=O)O)CC(=O)O)CC(=O)O` [ethylene diamine tetra-acetic acid], the “stabilizing effect on insulin” value in data set [2] is “no stabilizing effect”.
